Measurements reported in patent US20080153792A1, “Drug Identification and Treatment Method” (priority 2006, published 2008).

Tests used:
[1] = test system: CD1 male mice, carrageenan-λ induced pleurisy; experiment: carrageenan-λ induced lung (pleural cavity) inflammation in mice; type: in vivo, mouse; details: for number of neutrophils relative to untreated carrageenan-λ control (100%): 4 h after carrageenan
[2] = test system: BALB/c mice, OVA sensitized and challenged; experiment: ovalbumin (OVA) sensitized mouse model of asthma; type: in vivo; details: for IL-13: s.c. once daily, dexamethasone 5 mg/kg, compound 1 mg/mouse
Description: BALB/c mice were sensitized by intraperitoneal injection with OVA (in alum adjuvant) on days 1, and 12. Airways were challenged with OVA on days 28 and 30 by delivery of OVA to the lung, or with saline. […] The remaining animals were divided into 6 groups (6 mice per group). Groups of the mice were treated once daily by subcutaneous injection as follows. Group 1 vehicle control (0.1% carboxymethyl cellulose, 0.9% saline, 2% tween 80, 0.05% phenol). Group 2 dexamethazone (5 mg/kg). Group 3 3α,16α,17α-trihydroxyandrostane (1 mg/mouse). Three animals in groups 1-3 were sacrificed on day 35 at 1 hr after final treatment and the remaining 3 animals in groups 1-3 were sacrificed on day 38.

[3] = metabolic stability in liver microsomes, species not stated; type: in vitro ADME; details: compared with androst-5-ene-3β,17β-diol reference compound
Description: (§1) The protocol was performed as follows. […] (2) Set up samples as follows. […] (4) The internal standard/acetonitrile solution.

[4] = test system: NF-κB in spleen cells of ICR mice; experiment: activated NF-κB in spleen cell nuclei after LPS, Example 8; type: in vivo, mouse; details: about 40 mg/kg i.p. 24 h before and 1 h after LPS; spleens 1.5 hours after LPS
Description: The capacity of selected compounds to treat LPS induced shock/inflammation in mice was examined by a protocol similar to the protocol described above. Five groups of three ICR mice weighing about 30 g were each treated by intraperitoneal injection with 120 μL vehicle (30% sulfobutylether-cyclodextrin in water), androst-5-ene-3α,7β,16α,17β-tetrol in vehicle, androst-5-ene-3β,4β,16α,17β-tetrol in vehicle or 4β-acetoxyandrost-5-ene-3β,16α,17β-triol in vehicle. All drug and vehicle formulations were solutions, not suspensions. The sulfobutylether-cyclodextrin was obtained commercially (Captisol™, www.cyclexinc.com). There were two vehicle control groups one group received vehicle alone and the other received vehicle plus LPS. […] Drug was administered at about 40 mg/kg (1.2 mg drug/animal for each administration of the drugs). Spleens were harvested from the animals at 1.5 hours after injection of LPS and spleen cells were lysed and assayed for activated NF-κB by isolating nuclei from spleen cells and measuring NF-κB from the lysed nuclei. […] The level of activated NF-κB in spleen cells from the animals that were treated with vehicle and no LPS, was essentially the same as the activated NF-κB in spleen cells from drug treated animals.

[5] = test system: human peripheral blood mononuclear cells (PBMC); experiment: human mixed lymphocyte reaction (MLR); type: cell-based; details: 6 days
Description: Human mixed lymphocyte reaction (MLR). The capacity of 3β,16α-dihydroxy-17-oxoandrostane, 3β,17β-dihydroxy-16-oxoandrostane, 17α-ethynylandrost-5-ene-3β,7β,17β-triol, and 17β-aminoandrost-5-ene-3β-ol to affect antigen specific stimulation in which human T lymphocytes respond to a specific foreign antigen (major histocompatibility complex).
Blood samples were obtained from 3 (2 males, […]) fasting, healthy human volunteers of 23-31 years old. […] The subjects were bled between […] to limit possible fluctuations in the circulating levels of hormones or cytokines that could have influenced the in vitro responses of their lymphocytes. Peripheral blood mononuclear cells (PBMC) were isolated by centrifugation on Ficoll-Hypaque (density 1.077, Biochrom AG, Berlin, Germany) gradients and resuspended in culture medium (RPMI 1640 supplemented with 2 mM L-glutamine, penicillin (100 U/mL) and streptomycin ([…]) (Invitrogen s.rl., Milan, Italy). Autologous (responder) inactivated plasma was used at 10%. Five hundred thousand responder PBMC (PBMCr) and 500,000 allogeneic irradiated (30 Gy) stimulator PBMC (PBMCs) were mixed at a ratio of 1:1 in 200 μL medium and cultured for 6 days in flat bottom 96 well plates (Nunc, Roskilde, Denmark) at a concentration of 300 nM or 30 nM for each of the 4 compounds. The compounds were dissolved in ethanol and then diluted to the desired concentration with culture medium leading to a final solution containing 0.01% of ethanol. This vehicle was used as control. Controls also included PBMCr and PBMCs cultured separately. During the last 8 hours of the culture period the PBMC were pulsed with 1 μCi/well [^3H] thymidine (Amersham, Milan, Italy). The cells were then harvested and radioactivity incorporation measured with a beta cell counter. The mean cpm of quadruplicate wells was calculated. Proliferation of T cells was expressed as a stimulation index: SI=cpm (PMBCs xPBMCr)/cpm (PBMCr)+cpm (PBMCs). Statistical analysis was performed using the Student's t test. The cpm obtained from quadruplicate of each test compound were compared to proliferative responses obtained in control PBMCr and PBMCs cultured in the presence of the vehicle. Differences were considered significant at p<0.05.

[6] = test system: Balb/c mice, ear burn; experiment: thermal injury model using mouse ear tissue; type: in vivo; details: injection in propylene glycol after burn
Description: A thermal injury model using mouse ear tissue was used to characterize compounds for their capacity to treat inflammation associated with thermal trauma. […] Groups of Balb/c mice, approximately nine weeks old were given an identifying mark and then divided into control and treated subgroups. The thickness of the ear to be immersed in hot water was recorded, and then the entire ear of the anesthetized mouse was dipped into 52° C. water for 24 seconds. Each mouse was returned to its cage after an injection of either the propylene glycol vehicle (control) or 100 mg of compound in propylene glycol. Ear swelling changes were monitored on individual mice at pre-burn, and at various times after thermal injury. Ear swelling changes were monitored on individual mice at pre-injury and at 1, 3, 6, 9, 12, 18, 24 and 48 hours after thermal injury. Animals were treated with 100 mg of dehydroepiandrosterone (DHEA) dissolved in propylene glycol.

[7] = test system: female SJL/J mice, EAE; experiment: experimental allergic encephalomyelitis (EAE), PLP 139-151, Example 6; type: in vivo, mouse; details: 5 mg/kg daily by oral gavage, through day 26
Description: Treatment of autoimmune neurodegeneration. Three compounds, 17β-aminoandrost-5-ene-3β-ol, 17β-dimethylaminoandrost-5-ene-3β-ol and 17β-methylaminoandrost-5-ene-3β-ol were characterized for their capacity to ameliorate experimental allergic encephalomyelitis (EAE) in mice. This demyelinating condition is extensively used as a model for multiple sclerosis in humans and for testing of new therapies for treating multiple sclerosis, e.g., B. F. Bebo Jr. et al., J. Neurosci. Res. 52:420-426 1998; R. R. Voskuhl et al., Neuroscientist, 7:258-270 2001; H. Offner et al., J. Neuroimmunol., 130:128-139 2002.
In this protocol, the compounds were administered to female SJL/J mice by oral gavage at the onset of disease symptoms. An antigen was used to initiate the EAE condition in the mice. […] Immunization with this peptide antigen initiates an autoimmune Th1 mediated demyelinating disease of the central nervous system. The antigen was prepared by solid phase synthesis and purified by high-performance liquid chromatography. […] The immunization protocol was subcutaneous injection over four sites on the hind flank on day 0. After immunization. the mice were assessed daily for clinical signs of EAE using the following scale: 0=no clinical signs or symptoms; 1=limp tail; 2=mild hind limb weakness and limp tail; 3=moderate hind limb weakness and limp tail or mild ataxia; 4=severe hind limb weakness and mild forearm weakness with moderate ataxia; 5=paraplegia with no more than moderate forelimb weakness; 6=paraplegia with severe forelimb weakness or severe ataxia or moribund condition.
Mice in the vehicle control group began to show observable symptoms of EAE at about 10-11 days after immunization with the PLP antigen, which is typical for the EAE disease model. The animals were dosed daily with 17β-aminoandrost-5-ene-3β-ol, 17β-dimethylaminoandrost-5-ene-3β-ol or 17β-methylaminoandrost-5-ene-3β-ol by oral gavage beginning at day 1, which was 1 day after immunization.

[8] = test system: NF-κB; experiment: NF-κB-bla THP-1 β-lactamase reporter assay; type: cell-based, human; details: Homo sapiens, THP-1, read-out: IC50 for inhibition of NF-κB activation, after LPS stimulation; 50% of the maximum inhibition the compound can induce; averages of 2-4 assays
[9] = test system: MG-63 cells; experiment: reversal of glucocorticoid effects in MG-63 osteosarcoma cells; type: cell-based, human; details: 10 nM compound
[10] = metabolic stability in liver microsomes: human
Description: as §1

[11] = metabolic stability in liver microsomes: mouse; details: 10 min
Description: as §1

Compound: C[C@]12CC[C@H]3[C@@H](CCC4C[C@H](O)CC[C@@]43C)[C@@H]1C[C@@H](O)[C@H]2O (stereo partly drawn) [3α,16α,17α-trihydroxyandrostane]
- number of neutrophils relative to untreated carrageenan-λ control (100%) ([1]; 0.001 mg s.c. 24 h and 1 h before carrageenan-λ): 103%
- number of neutrophils relative to untreated carrageenan-λ control (100%) ([1]; 0.01 mg s.c. 24 h and 1 h before carrageenan-λ): 45%
- number of neutrophils in the pleura ([1]; 0.1 mg and 0.01 mg doses s.c.): significant reduction
- number of neutrophils relative to untreated carrageenan-λ control (100%) ([1]; 0.1 mg s.c. 24 h and 1 h before carrageenan-λ): 30%
- IL-13 ([2]; day 35): 195 pg/mL
- IL-5 in lung tissue ([2]; day 38): 90 pg/mL
- IL-13 ([2]; day 38): 210 pg/mL
- metabolism by microsomes [3]: metabolized by microsomes at a rate similar to the androst-5-ene-3β,17β-diol reference compound

Compound: C[C@]12CC[C@H]3[C@@H](CC=C4[C@@H](O)[C@@H](O)CC[C@@]43C)[C@@H]1C[C@@H](O)[C@@H]2O [3β,4β,16α,17β-tetrahydroxyandrost-5-ene]
- decrease of NF-κB activation compared to LPS+vehicle control group [4]: about 50%

Compound: C[C@]12CC[C@H]3[C@@H](CCC4C[C@@H](O)CC[C@@]43C)[C@@H]1CC(=O)[C@@H]2O (stereo partly drawn) [3β,17β-dihydroxy-16-oxoandrostane]
- immune suppression in the MLR ([5]; either 300 nM or 30 nM, p>0.05): not appreciably immune suppressive

Compound: CC(=O)O[C@@H]1C2=CC[C@H]3[C@@H]4C[C@@H](O)[C@H](O)[C@@]4(C)CC[C@@H]3[C@@]2(C)CC[C@@H]1O [4β-acetoxy-3β,16α,17β-trihydroxyandrost-5-ene]
- decrease of NF-κB activation compared to LPS+vehicle control group [4]: about 50%

Compound: C[C@]12CC[C@H](O)CC1=CC[C@@H]1[C@@H]2CC[C@]2(C)C(=O)[C@H](Br)C[C@@H]12 [16α-bromodehydroepiandrosterone]
- protection against progressive ischemia after thermal injury to the ear [6]: protected treated animals against much of the ischemic consequences

Compound: C[C@]12CC[C@H](O)CC1=CC[C@@H]1[C@@H]2CC[C@]2(C)C(=O)[C@H](Cl)C[C@@H]12 [16α-chlorodehydroepiandrosterone]
- protection against progressive ischemia after thermal injury to the ear [6]: only slightly protective

Compound: C[C@]12CC[C@H](O)CC1=CC[C@@H]1[C@@H]2CC[C@]2(C)C(=O)[C@H](O)C[C@@H]12 [16α-hydroxydehydroepiandrosterone]
- protection against progressive ischemia after thermal injury to the ear [6]: less protective

Compound: C[C@]12CC[C@H]3[C@@H](CC=C4C[C@@H](O)CC[C@@]43C)[C@@H]1CC[C@@H]2N [17β-aminoandrost-5-ene-3β-ol]
- anti-inflammation activity versus vehicle controls ([1]; 40 mg/kg by oral gavage, about 0.5 mg/mouse): statistically significant anti-inflammation activity
- activity on clinical severity of EAE symptoms [7]: active
- immune suppression in the MLR ([5]; 300 nM, p<0.05): moderately immune suppressive

Compound: CN(C)[C@H]1CC[C@H]2[C@@H]3CC=C4C[C@@H](O)CC[C@]4(C)[C@H]3CC[C@]12C [17β-dimethylaminoandrost-5-ene-3β-ol]
- activity on clinical severity of EAE symptoms [7]: active

Compound: CN[C@H]1CC[C@H]2[C@@H]3CC=C4C[C@@H](O)CC[C@]4(C)[C@H]3CC[C@]12C [17β-methylaminoandrost-5-ene-3β-ol]
- activity on clinical severity of EAE symptoms [7]: active

Compound: C[C@]12CC[C@H]3[C@@H]([C@H](O)C=C4C[C@@H](O)CC[C@@]43C)[C@@H]1C[C@@H](O)[C@@H]2O [androst-5-ene-3β,7α,16α,17β-tetrol]
- IC50 [8]: > 10 µM
- osteoprotegerin levels in the presence of 30 nM dexamethasone [9]: near normal osteoprotegerin levels
- parent remaining human microsomes ([10]; 10 min): 100% (10 min)
- parent remaining mouse microsomes [11]: 100% (10 min)

Compound: C[C@]12CC[C@H]3[C@@H](CC=C4C[C@@H](O)CC[C@@]43C)[C@@H]1C[C@@H](O)[C@@H]2O [androst-5-ene-3β,16α,17β-triol]
- metabolism by microsomes [3]: metabolized by microsomes at a rate similar to the androst-5-ene-3β,17β-diol reference compound

Compound: C[C@]12CC[C@H]3[C@@H](CC=C4C[C@@H](O)CC[C@@]43C)[C@@H]1CC[C@@H]2O [androst-5-ene-3β,17β-diol]
- protection against progressive ischemia after thermal injury to the ear [6]: protected treated animals against much of the ischemic consequences
- parent remaining human microsomes ([10]; 10 min): 39% (10 min)
- parent remaining human microsomes ([10]; 90 min): 30% (90 min)
- parent remaining mouse microsomes [11]: 25% (10 min)
